Reference: ChEMBL document CHEMBL1926641, “Farinamycin, a quinazoline from Streptomyces griseus” (J Nat Prod, 2011)
Activity calls are given as the source filed them. No cut-off for these calls is given here.

Tests used:
Candida albicans = assay: Antifungal activity against Candida albicans BMSY 212 at <= 100 ug/ml by agar diffusion assay; format: functional, organism-based
Pseudomonas aeruginosa = assay: Antimicrobial activity against Pseudomonas aeruginosa K 799/61 at <= 100 ug/ml by agar diffusion assay; format: functional, organism-based
[1] = test system: Sporobolomyces salmonicolor; assay: Antimicrobial activity against Sporobolomyces salmonicolor SBUG 549 at <= 100 ug/ml by agar diffusion assay; format: functional, organism-based
K562 = assay: Cytotoxicity against human K562 cells at <= 50 ug/ml; format: functional, cell-based
Staphylococcus aureus = assay: Antimicrobial activity against Staphylococcus aureus SG 511 at <= 100 ug/ml by agar diffusion assay; format: functional, organism-based
Escherichia coli = assay: Antimicrobial activity against Escherichia coli SG 458 at <= 100 ug/ml by agar diffusion assay; format: functional, organism-based
HUVEC = assay: Antiproliferative activity against human HUVEC cells at <= 50 ug/ml; format: cell-based
Penicillium chrysogenum = assay: Antifungal activity against Penicillium notatum JP 36 at <= 100 ug/ml by agar diffusion assay; format: functional, organism-based
Mycolicibacterium vaccae = assay: Antimicrobial activity against Mycobacterium vaccae IMET 10670 at <= 100 ug/ml by agar diffusion assay; format: functional, organism-based
HeLa = assay: Cytotoxicity against human HeLa cells at <= 50 ug/ml; format: functional, cell-based
Bacillus subtilis = assay: Antimicrobial activity against Bacillus subtilis ATCC 6633 at <= 100 ug/ml by agar diffusion assay; format: functional, organism-based

Structure (SMILES): NC(=O)C1=C(N)[C@@H](O)[C@H](O)[C@@H](Nc2cc(-c3nc4c(O)cccc4c(=O)[nH]3)ccc2O)C1=O [FARINAMYCIN]
- Activity (Candida albicans): inactive
- Activity (Pseudomonas aeruginosa): inactive
- Activity [1]: inactive
- Activity (K562): inactive
- Activity (Staphylococcus aureus): inactive
- Activity (Escherichia coli): inactive
- Activity (HUVEC): Non-toxic
- Activity (Penicillium chrysogenum): inactive
- Activity (Mycolicibacterium vaccae): inactive
- Activity (HeLa): inactive
- Activity (Bacillus subtilis): inactive
